Our source for the IC50 values is patent US20240287062A1, “NAPHTHYRIDONE COMPOUNDS FOR INHIBITION OF RAF KINASES AND/OR BCR-ABL TYROSINE KINASES” (Enliven Inc., priority 2021, published 2024).

Counter-ions that a name gives are not always drawn. Like-named read-outs stand apart in the source and are kept apart here.

What all share (assay type): cell-based
Series [1] relates to OCI-AML-2 (MBNL1-CRAF fusion). Nature of the series: Cell viability assay (CellTiter Glo). Particulars: OCI-AML-2, 1000 cells per well, read-out: BRAF Cytotoxicity (IC50, nM) OCI-AML-2. On the procedure: (§1) Cell viability was measured in the following MAPK pathway mutant cancer cell lines: A375 (BRAF V600E), HepG2 (NRAS Q61L), SK-MEL-30 (NRAS Q61K), and OCI-AML-2 (MBNL1-CRAF fusion). Cell viability was also measured in K562 cells.
(§2) A375, HepG2, SK-MEL-30 and OCI-AML-2 cells were grown in the appropriate growth medium as described in Table B2 below, and harvested at 50-80% confluence. Cells were counted and seeded at their appropriate density (see Table B1) in a 384-well plate (Corning 3570). A375, HepG2 and SK-MEL-30 were allowed to adhere overnight prior to treatment and the OCI-AML-2 were treated immediately for the indicated drug treatment times (Table 6).
(§3) Table 6 provides the growth media, number of cells seeded per well and drug treatment times for the each cell line. K562 cells were grown as described in Example B1 above.
(§4) Compounds were dissolved in DMSO and serially diluted. Serially-diluted compound or a DMSO only control (high control, “HC”) was added to the plated cells in each well. Compounds were tested at concentrations of about 10 μM to 0.51 nM, using three-fold dilutions. The final proportion of DMSO never exceeded 0.1%.
(§5) Plates were placed in a 37° C., […] incubator for the indicated treatment times (Table B1). Plates were then removed from the incubator and equilibrated for 15 minutes at room temperature. 40 μl of CellTiter Glo reagent (Promega) was added to measure the relative level of metabolically active cells by quantifying intracellular ATP concentrations. Plates were incubated for 30 minutes at room temperature, and luminescence was measured. Percent viability was normalized to a vehicle control only using the following formula: 0 viability=100×(LumSample−LumLC)/(LumHC−LumLC). Graphical curves were fitted using a nonlinear regression model with a sigmoidal dose response.

Series [2] has as its system A375 (BRAF V600E). The series can be described thus: Cell viability assay (CellTiter Glo). The procedure: as §1, §2, §3, §4, §5
In series [3] the test system is phosphorylated ERK (pERK). The series can be described thus: Detection of phosphorylated ERK (pERK), AlphaLISA in A375 cells. Particulars: four hours incubation, inhibition of ERK phosphorylation, read-out: PERK ELISA (IC50). On the procedure:
A375 cells were counted and seeded at 10,000 cells/well in 384 well plates (Corning 3764) and allowed to adhere overnight.
Compounds were dissolved and serially diluted in DMSO. The compounds were then added, mixed, and incubated for four hours at 37° C., 5% CO2. Compounds were added using four-fold dilutions at final concentrations ranging from 10 μM to 0.01 nM. DMSO only and 10 uM staurosporine were added as high and low controls.
Following the four-hour incubation with compounds, cell lysates were prepared and AlphaLISA assay measuring phosphorylated ERK was performed. Media was removed using the Apricot Designs pipettor. Lysis buffer was made from 1× AlphaLISA SureFire Assay Kit (AlphaLISA SureFire Ultra pERK 12 (Thr202/Tyr204) ALSU-PERK-A50K) lysis buffer with protease and phosphatase inhibitors. Cells were lysed by adding 10 uL to all the wells and mixed for 40 minutes on a plate shaker. 10 uL cell lysate was transferred to a new Optiplate (PerkinElmer 6007290) and incubated with 5 uL 1× acceptor mix for 2 hours in the dark. 5 uL of 1× donor mix was added to all wells and mixed by shaking followed by overnight incubation in the dark.
pERK AlphaLISA signal was read on the Envision using standard AlphaLISA settings. Percent inhibition of ERK phosphorylation was calculated by % Inhibition=100×(LumHC−LumSample)/(LumHC−LumLC). The low and high controls (LC/HC) are generated from lysate from wells with cells treated with DMSO or […] Staurosporine (BioAustralis, cat #BIA-S1086), […]. IC50 values were calculated by fitting the Curve using XLfit (v5.3.1.3), equation 201: Y=Bottom+(Top−Bottom)/(1+10^((Log IC50−X)*HillSlope)).

Series [4] relates to HepG2 (NRAS Q61L). The series can be described thus: Cell viability assay (CellTiter Glo). Particulars: HepG2, 750 cells per well, 120 hours; read-out: BRAF Cytotoxicity (IC50, nM) HEPG2. On the procedure:
as §1, §2, §3, §4, §5

The subject of series [5] is SK-MEL-30 (NRAS Q61K). Nature of the series: Cell viability assay (CellTiter Glo). Particulars: SK-MEL-30, 750 cells per well, 120 hours; read-out: BRAF Cytotoxicity (IC50, nM) SK-MEL-30. On the procedure:
as §1, §2, §3, §4, §5

Where [6] appears, read: Homo sapiens, A-375, 72 h, A375, 1000 cells seeded per well, read-out: BRAF Cytotoxicity (IC50, nM) A375 (1000 cells).
Setting [7] is: A375, 250 cells seeded per well, 72 hours, read-out: BRAF Cytotoxicity (IC50, nM) A375 (250 cells).
Where [8] appears, read: A375, 1000 cells seeded per well, 72 hours, read-out: BRAF Cytotoxicity (IC50, nM) A375 (1000 cells).

With `CC[C@@H](O)c1cc(C)c(-c2cc3cnc(NC(=O)C4CC4)cc3n(C)c2=O)cn1` [Compound 68, (R)—N-(3-(6-(1-hydroxypropyl)-4-methylpyridin-3-yl)-1-methyl-2-oxo-1,2-dihydro-1,6-naphthyridin-7-yl)cyclopropanecarboxamide], the IC50 turned out to be 2510 nM in series [1] (Homo sapiens, OCI-AML2, 72 h); 871 nM in series [2] (setting [6]); 249 nM in series [3] (Homo sapiens, A-375, 4 h).
For the compound `Cc1cc([C@H](O)C(C)(F)F)ncc1-c1cc2cnc(NC(=O)C3CC3)cc2n(C)c1=O` (single isomer, unassigned) [Compound 116, formate], the IC50 in series [3] (Homo sapiens, A-375, 4 h) turned out to be 78.1 nM.
In the case of `CCC(O)c1cc(C)c(-c2cc3cnc(NC(=O)C4CC4)cc3n(C)c2=O)c(C)c1` (stereo in doubt) [Compound 119, (R)—N-(3-(4-(1-hydroxypropyl)-2,6-dimethylphenyl)-1-methyl-2-oxo-1,2-dihydro-1,6-naphthyridin-7-yl)cyclopropanecarboxamide], the IC50 in series [3] was found to be 313 nM.
For `Cc1cc(-n2cccn2)ncc1-c1cc2cnc(NC(=O)C3CC3)cc2n(C)c1=O` [Compound 122, N-{1-methyl-3-[4-methyl-6-(pyrazol-1-yl)pyridin-3-yl]-2-oxo-1,6-naphthyridin-7-yl}cyclopropanecarboxamide], the concentration for half-maximal inhibition (IC50) in series [3] (Homo sapiens, A-375, 4 h) was determined as 478 nM.
Turning to `CC[C@@H](O)c1cc(C)c(-c2cc3cnc(NC(=O)[C@H]4C[C@H]4F)cc3n(C)c2=O)cn1` [Compound 109, (1R,2R)-2-fluoro-N-(3-(6-((R)-1-hydroxypropyl)-4-methylpyridin-3-yl)-1-methyl-2-oxo-1,2-dihydro-1,6-naphthyridin-7-yl)cyclopropane-1-carboxamide], the IC50 in series [2] (setting [6]) came out at 1630 nM; in series [3] (Homo sapiens, A-375, 4 h), 76.6 nM.
As for `CC[C@H](O)c1cc(C)c(-c2cc3cnc(NC(=O)[C@@H]4CC4(F)F)cc3n(C)c2=O)cn1` (single isomer, unassigned) [Compound 124], the IC50 in series [3] (Homo sapiens, A-375, 4 h) was found to be 63.5 nM.
Regarding `COCC(O)c1cc(C)c(-c2cc3cnc(NC(=O)C4CC4)cc3n(C)c2=O)cn1` (single isomer, unassigned) [Example S60, Enantiomer A, N-(3-{6-[1-hydroxy-2-methoxyethyl]-4-methylpyridin-3-yl}-1-methyl-2-oxo-1,6-naphthyridin-7-yl)cyclopropanecarboxamide], the IC50 is above 10000 nM in series [4], above 10000 nM in series [5], 5950 nM in series [2] (setting [7]) and 120 nM in series [3].
Regarding `CCC(O)c1cc(C)c(-c2cc3cnc(NC(=O)C4CC4)cc3n(C)c2=O)c(C)c1` (stereo in doubt) [Compound 118, (R)—N-(3-(4-(1-hydroxypropyl)-2,6-dimethylphenyl)-1-methyl-2-oxo-1,2-dihydro-1,6-naphthyridin-7-yl)cyclopropanecarboxamide], the IC50 in series [3] came out at 1250 nM.
In the case of `CCC(O)c1cc(C)c(-c2cc3cnc(NC(=O)[C@H]4CC4(F)F)cc3n(C)c2=O)cn1` (single isomer, unassigned) [Example S49, Isomer A], the half-inhibitory concentration (IC50) in series [4] is 2750 nM; in series [5], above 10000 nM; in series [1] (72 hours), above 10000 nM; in series [3], 73.8 nM.
Turning to `CCC(O)c1cc(C)c(-c2cc3cnc(NC(=O)[C@@H]4C[C@@H]4F)cc3n(C)c2=O)cn1` (single isomer, unassigned; isomer b) [Example S40, Isomer B], the IC50 in series [2] (setting [8]) came to 940 nM; in series [3], 230 nM.
As for `CCC(O)c1cc(C)c(-c2cc3cnc(NC(=O)C4CC4)cc3n(C)c2=O)c(C)c1` (stereo in doubt) [Compound 121, (S)—N-(3-(4-(1-hydroxypropyl)-2,6-dimethylphenyl)-1-methyl-2-oxo-1,2-dihydro-1,6-naphthyridin-7-yl)cyclopropanecarboxamide], the IC50 in series [3] came to 151 nM.
On the same count and under the same terms, as for `CCC(O)c1cc(C)c(-c2cc3cnc(NC(C)=O)cc3n(C)c2=O)cn1` (single isomer, unassigned) [Example S59, Enantiomer B, N-(3-(6-(1-hydroxypropyl)-4-methylpyridin-3-yl)-1-methyl-2-oxo-1,2-dihydro-1,6-naphthyridin-7-yl)acetamide], the figure is 373 nM; as for `CCC(O)c1cc(C)c(-c2cc3cnc(NC(=O)C4CC4)cc3n(C)c2=O)c(C)c1` (stereo in doubt) [Compound 120, (S)—N-(3-(4-(1-hydroxypropyl)-2,6-dimethylphenyl)-1-methyl-2-oxo-1,2-dihydro-1,6-naphthyridin-7-yl)cyclopropanecarboxamide], above 10000 nM.
Turning to `CCCC(O)c1cc(C)c(-c2cc3cnc(NC(=O)C4CC4)cc3n(C)c2=O)cn1` (single isomer, unassigned) [Example S42, Enantiomer B, N-(3-(6-(1-hydroxybutyl)-4-methylpyridin-3-yl)-1-methyl-2-oxo-1,2-dihydro-1,6-naphthyridin-7-yl)cyclopropanecarboxamide], the IC50 in series [2] (setting [8]) was found to be 141 nM; in series [3] it was 14.7 nM.
On to `COCC(O)c1cc(C)c(-c2cc3cnc(NC(=O)C4CC4)cc3n(C)c2=O)cn1` (single isomer, unassigned) [Example S60, Enantiomer B, N-(3-{6-[1-hydroxy-2-methoxyethyl]-4-methylpyridin-3-yl}-1-methyl-2-oxo-1,6-naphthyridin-7-yl)cyclopropanecarboxamide], for which the IC50 in series [4] was 225 nM; in series [5], 3260 nM; in series [2] (setting [7]), 1070 nM; in series [3] it was 19 nM.
Take `Cc1cc([C@@H](O)C(C)(F)F)ncc1-c1cc2cnc(NC(=O)C3CC3)cc2n(C)c1=O` (single isomer, unassigned) [Compound 117]: in series [3] (Homo sapiens, A-375, 4 h), the IC50 was found to be 61.3 nM.
On the same count and under the same terms, as for `CC[C@@H](O)c1cc(C)c(-c2cc3cnc(NC(=O)[C@@H]4CC4(F)F)cc3n(C)c2=O)cn1` (single isomer, unassigned) [Compound 123], the figure is 119 nM.
As to `CCCC(O)c1cc(C)c(-c2cc3cnc(NC(=O)C4CC4)cc3n(C)c2=O)cn1` (single isomer, unassigned) [Example S42, Enantiomer A, N-(3-(6-(1-hydroxybutyl)-4-methylpyridin-3-yl)-1-methyl-2-oxo-1,2-dihydro-1,6-naphthyridin-7-yl)cyclopropanecarboxamide], the IC50 in series [2] (setting [8]) is 930 nM; in series [3], 55.1 nM.
As for `CCCC(O)c1cc(C)c(-c2cc3cnc(NC(C)=O)cc3n(C)c2=O)cn1` (single isomer, unassigned) [Example S67, Enantiomer B, N-(3-{6-[1-hydroxybutyl]-4-methylpyridin-3-yl}-1-methyl-2-oxo-1,6-naphthyridin-7-yl)acetamide], in series [3], the IC50 turned out to be 23.9 nM.
